# Legend:
# Format in all cases: cell-based, human
# fibrocytes = test: fibrocyte migration in response to recombinant chemokine (CXCL12, CCL11), modified Boyden chamber assay
# Protocol: (§1) Purification of nonadherent non-T (NANT) cells was performed. Briefly, peripheral blood mononuclear cells (PBMC) were separated from whole blood by Ficoll-Hypaque density gradient centrifugation. After the first centrifugation at 150 g for 15 min, the top plasma layer was harvested and kept at −80° C. for further analysis. Mononuclear cells at the interface were harvested, washed once with 1×PBS. Erythrocyte lysis was performed by adding 20 ml of hypotonic 0.2% NaCl solution during 30s, followed by adding 20 ml of 1.6% NaCl to end with an isotonic solution. Mononuclear cells were again washed with 1×PBS, resuspended in Dulbecco's modified Eagle medium (DMEM), 4.5 g/l glucose, L-glutamine, supplemented with 20% fetal bovine serum (FBS), penicillin/streptomycin and MEM non essential amino acid and incubated 1 h at 37° C. The non-adherent mononuclear cell fraction was taken and washed in cold 1×PBS 0.5% BSA, 2 mM EDTA. T-cells were further depleted with anti-CD3 monoclonal antibody (Miltenyi Biotech). At least 0.2×10^6 nonadherent non-T (NANT) cells were distributed in each FACS tube and fixed overnight with Cytofix/Cytoperm (eBioscience).
# Fibrocyte migration was assessed using a modified Boyden chamber assay. The transwell inserts (pore size 8 μm) and the wells were coated for 1 h at room temperature with poly-lysine-ethylene glycol (PEG-PLL, Susos) to prevent cell adhesion. The inserts and the wells were rinsed with PBS. 0,3.10^6 nonadherent non-T (NANT) cells resuspended in 0.2 ml […] DMEM, 4.5 g/l glucose, L-glutamine, supplemented with ITS, penicillin/streptomycin and MEM non essential amino acid were added to the upper compartment of each well. […] The fraction of migratory fibrocytes was defined by the ratio between the number CD45+coll I+ cells counted in the bottom chamber divided by the number of CD45+coll I+ cells added in the upper compartment. […]
# [1] = system: fibrocytes obtained from normal subjects; test: plasma-induced fibrocyte migration, modified Boyden chamber assay
# Protocol: as §1
# (§2) Fibrocyte migration was assessed using a modified Boyden chamber assay. The transwell inserts (pore size 8 μm) and the wells were coated for 1 h at room temperature with poly-lysine-ethylene glycol (PEG-PLL, Susos) to prevent cell adhesion. The inserts and the wells were rinsed with PBS. 0,3.10^6 nonadherent non-T (NANT) cells resuspended in 0.2 ml […] DMEM, 4.5 g/l glucose, L-glutamine, supplemented with ITS, penicillin/streptomycin and MEM non essential amino acid were added to the upper compartment of each well. When indicated, NANT cells were pretreated for 1 h at 37° by 25 μg/ml plerixafor (Sigma-Aldrich) or 10 μM SB 328437 (R&D Systems) before being added to the upper compartment. Recombinant human CXCL12 (25 ng/ml to 200 ng/ml; R&D Systems), recombinant human CCL11 (25 ng/ml to 200 ng/ml; R&D Systems) or plasma (50% dilution) extracted from blood coming from COPD V1 patient or control subject was added to the bottom compartment of each well. After about 12 h, the content of bottom compartment was removed to assess fibrocyte migration by flow cytometry using double labeling CD45-collagen I. To obtain absolute values of migratory cells, flow cytometric counts for each condition were obtained during a constant predetermined time period (1 min). The fraction of migratory fibrocytes was defined by the ratio between the number CD45+coll I+ cells counted in the bottom chamber divided by the number of CD45+coll I+ cells added in the upper compartment. These values were normalized to the fraction of migratory fibrocytes obtained in the basal condition (medium only).
# [2] = system: fibrocytes obtained from exacerbating COPD patients; test: as above
# Protocol: as §1, §2
compound,measurement,setting,value
c1cc(CN2CCCNCCNCCCNCC2)ccc1CN1CCCNCCNCCCNCC1 [Plerixafor],fibrocyte migration in response to CXCL12 in presence of antagonist,"fibrocytes; CXCL12 alpha-induced migration, cells pretreated 1 h with 25 μg/ml plerixafor, FIG. 5D",completely abolished
same,plasma-induced migration of fibrocytes,"[1]; fibrocytes from normal (control) subjects, plasma of exacerbating COPD patients (50% dilution), cells pretreated 1 h with 25 μg/ml plerixafor, about 12 h, FIG. 5A",no significant reduction
same,plasma-induced recruitment of fibrocytes,"[2]; plasma of exacerbating COPD patients (50% dilution), cells pretreated 1 h with 25 μg/ml plerixafor, about 12 h, FIG. 5A",significant reduction
"COC(=O)[C@H](Cc1ccc([N+](=O)[O-])cc1)NC(=O)c1ccc2ccccc2c1 [SB 328437, (S)-methyl-2-naphthoylamino-3-(4-nitrophenyl) propionate]",plasma-induced migration of fibrocytes,"[1]; fibrocytes from control subjects, plasma of exacerbating COPD patients, cells pretreated 1 h with 10 μM SB 328437, Figure E3A (FIG. 8A)",not affected
same,plasma-induced migration of fibrocytes,"[2]; plasma of exacerbating COPD patients, cells pretreated 1 h with 10 μM SB 328437, Figure E3A (FIG. 8A)",not affected
"CXCL12 alpha: recombinant human CXCL12 (R&D Systems), chemokine ligand of CXCR4",migration of fibrocytes from exacerbating COPD patient compared to fibrocytes from control subjects,"fibrocytes; 100 ng/ml chemokine, FIG. 5C",significantly higher migration
same,migratory response of fibrocytes to increasing concentrations of chemokine,"fibrocytes; recombinant human chemokine 25 ng/ml to 200 ng/ml in bottom compartment, about 12 h, FIG. 5C, Figure E3C",induced a significant fibrocytes migration in a dose-dependent manner

# From patent US10813911B2, “Methods of treating and/or preventing chronic obstructive pulmonary disease” (UNIVERSITE DE BORDEAUX, priority 2015, dated 2020)
